The values that follow come from patent US4335213A (priority 1979, dated 1982).

Like-named read-outs stand apart in the source and are kept apart here.

Experiment [1] relates to galactose oxidase. It counts as biochemical, Gibberella fujikuroi Y-530929. To be noted: 25° C., pH 7.0.
The subject of experiment [2] is galactose oxidase. Description: Substrate specificity of galactose oxidase (quinoneimine colorimetric assay).

In experiment [1], `O=[N+]([O-])[O-].[Ag+]` [AgNO3] registered an Inhibition rate of 100%.

On to `O=C(O)CN(CCN(CC(=O)O)CC(=O)O)CC(=O)O` [EDTA, ethylenediaminetetraacetic acid], for which the Inhibition rate in experiment [1] (inhibitor 10^-3 M) came out at 52%.

With `NO` [NH2 OH], the Inhibition rate in experiment [1] is recorded as 100%.

With `[N-]=[N+]=[N-].[Na+]` [NaN3], the Inhibition rate in experiment [1] came out at 94%.

In experiment [1], `O=C(O)c1cc[c]([Hg][Cl])cc1` [PCMB, parachloromercurybenzoate] registered an Inhibition rate of 57%.

`O=C(CO)CO` [dihydroxyacetone]: in experiment [2], the “action of the enzyme on the substrate” value was “acts on”.

As to `OC[C@H]1O[C@H](OC[C@H]2OC(O)[C@H](O)[C@@H](O)[C@@H]2O)[C@H](O)[C@@H](O)[C@H]1O` (stereo partly drawn) [melibiose], the “action of the enzyme on the substrate” value in experiment [2] is recorded as “acts on”.

Turning to `c1cnc2c(c1)ccc1cccnc12` [o-phenanthroline], the Inhibition rate in experiment [1] (inhibitor 10^-3 M) is listed as 68%.

As for `OC[C@H]1O[C@H](OC[C@H]2O[C@H](O[C@]3(CO)O[C@H](CO)[C@@H](O)[C@@H]3O)[C@H](O)[C@@H](O)[C@@H]2O)[C@H](O)[C@@H](O)[C@H]1O` [raffinose], the “action of the enzyme on the substrate” value in experiment [2] is recorded as “acts on”.
